Results taken from patent US6689773B2, “Uracil substituted phenyl sulfamoyl carboxamides” (BASF Aktiengesellschaft, priority 2000, dated 2004).

How the values were obtained:
Type in all cases: in vivo
[1] = tested on: ABUTH, Velvetleaf, Abutilon theophrasti, Medic.; assay: Postemergence herbicidal evaluation (Example 147); conditions: rating scale 0-9, two to three weeks after treatment
Procedure: (§1) Seedling plants were grown in jiffy flats for about two weeks. The test compounds were dispersed in 80/20 acetone/water mixtures containing 1.0% SUN-IT®II, a methylated seed oil, in sufficient quantities to provide the equivalent of about 0.016 to 0.032 kg per hectare of active compound when applied to the plants through a spray nozzle operating at 40 psi for a predetermined time. After spraying, the plants were placed on greenhouse benches and were cared for in accordance with conventional greenhouse procedures. Approximately two to three weeks after treatment, the seedling plants were examined and rated according to the rating scale (0-9) set forth below. Where more than one test is involved for a given compound, the data are averaged. [table] The scale is based upon a visual observation of plant stand, vigor, malformation, size, chlorosis and overall plant appearance as compared with a control. Plant species employed in these evaluations are reported by header abbreviation, common name and scientific name. [table]

[2] = tested on: ALOMY, Blackgrass, Alopecurus myosuroides; assay: Postemergence herbicidal evaluation (Example 147); conditions: rating scale 0-9, two to three weeks after treatment
Procedure: as §1

[3] = tested on: AMBEL, Ragweed, Common, Ambrosia artemiisifolia, L.; assay: Postemergence herbicidal evaluation (Example 147); conditions: rating scale 0-9, two to three weeks after treatment
Procedure: as §1

[4] = tested on: CHEAL, Lambsquarters, Chenopodium album, L. Common; assay: Postemergence herbicidal evaluation (Example 147); conditions: rating scale 0-9, two to three weeks after treatment
Procedure: as §1

[5] = tested on: DIGSA, Crabgrass, (Hairy) L, Digitaria sanguinalis, (L)Scop; assay: Postemergence herbicidal evaluation (Example 147); conditions: rating scale 0-9, two to three weeks after treatment
Procedure: as §1

[6] = tested on: ECHCG, Barnyardgrass, Echinochloa crusgalli, (L.)Beau; assay: Postemergence herbicidal evaluation (Example 147); conditions: rating scale 0-9, two to three weeks after treatment
Procedure: as §1

[7] = tested on: GLXMA, Soybean, Glycine max, (L.) Merr.; assay: Postemergence herbicidal evaluation (Example 147); conditions: rating scale 0-9, two to three weeks after treatment
Procedure: as §1

[8] = tested on: IPOHE, Morningglory, Ivyleaf, Ipomoea hederacea, (L)Jacq.; assay: Postemergence herbicidal evaluation (Example 147); conditions: rating scale 0-9, two to three weeks after treatment
Procedure: as §1

[9] = tested on: SETVI, Green foxtail, Setaria viridis, (L.)Beau; assay: Postemergence herbicidal evaluation (Example 147); conditions: rating scale 0-9, two to three weeks after treatment
Procedure: as §1

[10] = tested on: TRZAW, Winter wheat, Tritium Aestivum, L. (Winter); assay: Postemergence herbicidal evaluation (Example 147); conditions: rating scale 0-9, two to three weeks after treatment
Procedure: as §1

[11] = tested on: XANST, Cocklebur, Xanthium strumariam; assay: Postemergence herbicidal evaluation (Example 147); conditions: rating scale 0-9, two to three weeks after treatment
Procedure: as §1

[12] = tested on: ZEAMX, Field corn, Zea mays L.; assay: Postemergence herbicidal evaluation (Example 147); conditions: rating scale 0-9, two to three weeks after treatment
Procedure: as §1

[13] = tested on: ABUTH, Velvetleaf, Abutilon theophrasti, Medic.; assay: Preemergence herbicidal evaluation (Example 148); conditions: rating scale 0-9, two to four weeks after treatment
Procedure: (§2) The scale is based upon a visual observation of plant stand, vigor, malformation, size, chlorosis and overall plant appearance as compared with a control.
(§3) The herbicidal activity of the compounds of the present invention was evaluated by the following tests wherein the seeds of a variety of monocotyledonous and dicotyledonous plants were separately mixed with potting soil and planted on top of approximately one inch of soil in separate pint cups. After planting, the cups were sprayed with the selected aqueous acetone solution containing test compound in sufficient quantity to provide the equivalent of about 0.125 to 0.250 kg per hectare of test compound per cup. The treated cups were then placed on greenhouse benches, watered and cared for in accordance with conventional greenhouse procedures. From two to four weeks after treatment, the tests were terminated and each cup was examined and rated according to the rating system provided in Example 94. When more than one test was performed for a given compound, the data were averaged.

[14] = tested on: ALOMY, Blackgrass, Alopecurus myosuroides; assay: Preemergence herbicidal evaluation (Example 148); conditions: rating scale 0-9, two to four weeks after treatment
Procedure: as §2, §3

[15] = tested on: AMBEL, Ragweed, Common, Ambrosia artemiisifolia, L.; assay: Preemergence herbicidal evaluation (Example 148); conditions: rating scale 0-9, two to four weeks after treatment
Procedure: as §2, §3

[16] = tested on: CHEAL, Lambsquarters, Chenopodium album, L. Common; assay: Preemergence herbicidal evaluation (Example 148); conditions: rating scale 0-9, two to four weeks after treatment
Procedure: as §2, §3

[17] = tested on: DIGSA, Crabgrass, (Hairy) L, Digitaria sanguinalis, (L)Scop; assay: Preemergence herbicidal evaluation (Example 148); conditions: rating scale 0-9, two to four weeks after treatment
Procedure: as §2, §3

[18] = tested on: ECHCG, Barnyardgrass, Echinochloa crusgalli, (L.)Beau; assay: Preemergence herbicidal evaluation (Example 148); conditions: rating scale 0-9, two to four weeks after treatment
Procedure: as §2, §3

[19] = tested on: IPOHE, Morningglory, Ivyleaf, Ipomoea hederacea, (L)Jacq.; assay: Preemergence herbicidal evaluation (Example 148); conditions: rating scale 0-9, two to four weeks after treatment
Procedure: as §2, §3

[20] = tested on: SETVI, Green foxtail, Setaria viridis, (L.)Beau; assay: Preemergence herbicidal evaluation (Example 148); conditions: rating scale 0-9, two to four weeks after treatment
Procedure: as §2, §3

[21] = tested on: TRZAW, Winter wheat, Tritium Aestivum, L. (Winter); assay: Preemergence herbicidal evaluation (Example 148); conditions: rating scale 0-9, two to four weeks after treatment
Procedure: as §2, §3

[22] = tested on: ZEAMX, Field corn, Zea mays L.; assay: Preemergence herbicidal evaluation (Example 148); conditions: rating scale 0-9, two to four weeks after treatment
Procedure: as §2, §3

SMILES: Cn1c(C(F)(F)F)cc(=O)n(-c2cc(C(=O)NS(=O)(=O)NC(C)(C)C)c(Cl)cc2F)c1=O [Example 65]
- Postemergence herbicidal rating ABUTH ([1]; rate 0.016 kg/ha): 9.0
- Postemergence herbicidal rating ABUTH ([1]; rate 0.032 kg/ha): 9.0
- Postemergence herbicidal rating ALMOY ([2]; rate 0.016 kg/ha): 2.0
- Postemergence herbicidal rating ALMOY ([2]; rate 0.032 kg/ha): 3.0
- Postemergence herbicidal rating AMBEL ([3]; rate 0.016 kg/ha): 9.0
- Postemergence herbicidal rating AMBEL ([3]; rate 0.032 kg/ha): 9.0
- Postemergence herbicidal rating CHEAL ([4]; rate 0.016 kg/ha): 8.0
- Postemergence herbicidal rating CHEAL ([4]; rate 0.032 kg/ha): 9.0
- Postemergence herbicidal rating DIGSA ([5]; rate 0.016 kg/ha): 6.0
- Postemergence herbicidal rating DIGSA ([5]; rate 0.032 kg/ha): 8.0
- Postemergence herbicidal rating ECHCG ([6]; rate 0.016 kg/ha): 8.0
- Postemergence herbicidal rating ECHCG ([6]; rate 0.032 kg/ha): 9.0
- Postemergence herbicidal rating GLXMA ([7]; rate 0.016 kg/ha): 8.0
- Postemergence herbicidal rating GLXMA ([7]; rate 0.032 kg/ha): 8.5
- Postemergence herbicidal rating IPOHE ([8]; rate 0.016 kg/ha): 9.0
- Postemergence herbicidal rating IPOHE ([8]; rate 0.032 kg/ha): 9.0
- Postemergence herbicidal rating SETVI ([9]; rate 0.016 kg/ha): 8.0
- Postemergence herbicidal rating SETVI ([9]; rate 0.032 kg/ha): 8.0
- Postemergence herbicidal rating TRZAW ([10]; rate 0.016 kg/ha): 5.5
- Postemergence herbicidal rating TRZAW ([10]; rate 0.032 kg/ha): 6.5
- Postemergence herbicidal rating XANST ([11]; rate 0.016 kg/ha): 9.0
- Postemergence herbicidal rating XANST ([11]; rate 0.032 kg/ha): 9.0
- Postemergence herbicidal rating ZEAMX ([12]; rate 0.016 kg/ha): 7.5
- Postemergence herbicidal rating ZEAMX ([12]; rate 0.032 kg/ha): 8.0
- Preemergence herbicidal rating ABUTH ([13]; rate 0.125 kg/ha): 9.0
- Preemergence herbicidal rating ABUTH ([13]; rate 0.25 kg/ha): 9.0
- Preemergence herbicidal rating ALMOY ([14]; rate 0.125 kg/ha): 0.0
- Preemergence herbicidal rating ALMOY ([14]; rate 0.25 kg/ha): 0.0
- Preemergence herbicidal rating AMBEL ([15]; rate 0.125 kg/ha): 9.0
- Preemergence herbicidal rating AMBEL ([15]; rate 0.25 kg/ha): 9.0
- Preemergence herbicidal rating CHEAL ([16]; rate 0.125 kg/ha): 9.0
- Preemergence herbicidal rating CHEAL ([16]; rate 0.25 kg/ha): 9.0
- Preemergence herbicidal rating DIGSA ([17]; rate 0.125 kg/ha): 7.0
- Preemergence herbicidal rating DIGSA ([17]; rate 0.25 kg/ha): 9.0
- Preemergence herbicidal rating ECHCG ([18]; rate 0.125 kg/ha): 8.0
- Preemergence herbicidal rating ECHCG ([18]; rate 0.25 kg/ha): 9.0
- Preemergence herbicidal rating IPOHE ([19]; rate 0.125 kg/ha): 9.0
- Preemergence herbicidal rating IPOHE ([19]; rate 0.25 kg/ha): 9.0
- Preemergence herbicidal rating SETVI ([20]; rate 0.125 kg/ha): 3.0
- Preemergence herbicidal rating SETVI ([20]; rate 0.25 kg/ha): 6.0
- Preemergence herbicidal rating TRZAW ([21]; rate 0.125 kg/ha): 1.0
- Preemergence herbicidal rating TRZAW ([21]; rate 0.25 kg/ha): 1.0
- Preemergence herbicidal rating ZEAMX ([22]; rate 0.125 kg/ha): 0.0
- Preemergence herbicidal rating ZEAMX ([22]; rate 0.25 kg/ha): 1.0

SMILES: CCCN(C)S(=O)(=O)NC(=O)c1cc(-n2c(=O)cc(C(F)(F)F)n(C)c2=O)c(F)cc1Cl [Example 67]
- Postemergence herbicidal rating ABUTH ([1]; rate 0.016 kg/ha): 9.0
- Postemergence herbicidal rating ABUTH ([1]; rate 0.032 kg/ha): 9.0
- Postemergence herbicidal rating ALMOY ([2]; rate 0.016 kg/ha): 2.0
- Postemergence herbicidal rating ALMOY ([2]; rate 0.032 kg/ha): 3.0
- Postemergence herbicidal rating AMBEL ([3]; rate 0.016 kg/ha): 9.0
- Postemergence herbicidal rating AMBEL ([3]; rate 0.032 kg/ha): 9.0
- Postemergence herbicidal rating CHEAL ([4]; rate 0.016 kg/ha): 9.0
- Postemergence herbicidal rating CHEAL ([4]; rate 0.032 kg/ha): 9.0
- Postemergence herbicidal rating DIGSA ([5]; rate 0.016 kg/ha): 6.0
- Postemergence herbicidal rating DIGSA ([5]; rate 0.032 kg/ha): 6.0
- Postemergence herbicidal rating ECHCG ([6]; rate 0.016 kg/ha): 8.0
- Postemergence herbicidal rating ECHCG ([6]; rate 0.032 kg/ha): 8.0
- Postemergence herbicidal rating GLXMA ([7]; rate 0.016 kg/ha): 8.0
- Postemergence herbicidal rating GLXMA ([7]; rate 0.032 kg/ha): 8.5
- Postemergence herbicidal rating IPOHE ([8]; rate 0.016 kg/ha): 9.0
- Postemergence herbicidal rating IPOHE ([8]; rate 0.032 kg/ha): 9.0
- Postemergence herbicidal rating SETVI ([9]; rate 0.016 kg/ha): 8.0
- Postemergence herbicidal rating SETVI ([9]; rate 0.032 kg/ha): 8.0
- Postemergence herbicidal rating TRZAW ([10]; rate 0.016 kg/ha): 6.5
- Postemergence herbicidal rating TRZAW ([10]; rate 0.032 kg/ha): 7.0
- Postemergence herbicidal rating XANST ([11]; rate 0.016 kg/ha): 9.0
- Postemergence herbicidal rating XANST ([11]; rate 0.032 kg/ha): 9.0
- Postemergence herbicidal rating ZEAMX ([12]; rate 0.016 kg/ha): 7.5
- Postemergence herbicidal rating ZEAMX ([12]; rate 0.032 kg/ha): 7.5
- Preemergence herbicidal rating ABUTH ([13]; rate 0.125 kg/ha): 9.0
- Preemergence herbicidal rating ABUTH ([13]; rate 0.25 kg/ha): 9.0
- Preemergence herbicidal rating ALMOY ([14]; rate 0.125 kg/ha): 0.0
- Preemergence herbicidal rating ALMOY ([14]; rate 0.25 kg/ha): 0.0
- Preemergence herbicidal rating AMBEL ([15]; rate 0.125 kg/ha): 9.0
- Preemergence herbicidal rating AMBEL ([15]; rate 0.25 kg/ha): 7.0
- Preemergence herbicidal rating CHEAL ([16]; rate 0.125 kg/ha): 9.0
- Preemergence herbicidal rating CHEAL ([16]; rate 0.25 kg/ha): 9.0
- Preemergence herbicidal rating DIGSA ([17]; rate 0.125 kg/ha): 7.0
- Preemergence herbicidal rating DIGSA ([17]; rate 0.25 kg/ha): 8.0
- Preemergence herbicidal rating ECHCG ([18]; rate 0.125 kg/ha): 8.0
- Preemergence herbicidal rating ECHCG ([18]; rate 0.25 kg/ha): 9.0
- Preemergence herbicidal rating IPOHE ([19]; rate 0.125 kg/ha): 9.0
- Preemergence herbicidal rating IPOHE ([19]; rate 0.25 kg/ha): 9.0
- Preemergence herbicidal rating SETVI ([20]; rate 0.125 kg/ha): 8.0
- Preemergence herbicidal rating SETVI ([20]; rate 0.25 kg/ha): 8.0
- Preemergence herbicidal rating TRZAW ([21]; rate 0.125 kg/ha): 0.0
- Preemergence herbicidal rating TRZAW ([21]; rate 0.25 kg/ha): 1.0
- Preemergence herbicidal rating ZEAMX ([22]; rate 0.125 kg/ha): 0.0
- Preemergence herbicidal rating ZEAMX ([22]; rate 0.25 kg/ha): 1.0
